Patent US10570129B2 (Zoetis Services LLC, priority 2015, dated 2020)
Like-named read-outs stand apart in the source and are kept apart here.

Tests used:
Haemonchus contortus L3 = test: microbe, parasite or virus in culture; assay type: cell-based; details: for minimal effective concentration: Haemonchus contortus, 96 h, read-out: HcL3 Minimal Effective Concentration (MEC)
D. immitis microfilariae = test: Dirofilaria immitis, microfilariae (DiMF) in vitro motility assay; assay type: cell-based; details: for minimal effective concentration: Dirofilaria immitis, 72 h, read-out: DiMF minimally effective dose (MEC)

Row | Compound | minimal effective concentration (Haemonchus contortus L3) | minimal effective concentration (D. immitis microfilariae) | HcL3 Minimal Effective Concentration (MEC) (Haemonchus contortus L3) | DiMF minimally effective dose (MEC) (D. immitis microfilariae) | DiMF minimally effective dose (MEC) (D. immitis microfilariae; decrease in microfilariae motility by subjective visual assessment, observed at 72 hours)
1 | O=C(NCc1ccnc(Cl)c1)n1c2c(c3cc(C(F)(F)F)ccc31)CN(C/C=C/c1ccc(OC(F)(F)F)cc1)CC2 [Example 335, (E)-N-((2-chloropyridin-4-yl)methyl)-2-(3-(4-(trifluoromethoxy)phenyl)allyl)-8-(trifluoromethyl)-1,2,3,4-tetrahydro-5H-pyrido[4,3-b]indole-5-carboxamide] | 10 µM | 24 µM | – | – | –
2 | O=C(NCc1ccnc(Cl)c1)n1c2c(c3ccc(OC(F)(F)F)cc31)CN(C/C=C/c1cc(F)c(F)c(F)c1)CC2 [Example 350, (E)-N-((2-chloropyridin-4-yl)methyl)-7-(trifluoromethoxy)-2-(3-(3,4,5-trifluorophenyl)allyl)-1,2,3,4-tetrahydro-5H-pyrido[4,3-b]indole-5-carboxamide] | 0.2 µM | 1.3 µM | – | – | –
3 | N#Cc1ccc(/C=C/CN2CCc3c(c4cc(Cl)ccc4n3C(=O)NCc3ccnc(Cl)c3)C2)cc1 [Example 241, (E)-8-chloro-N-((2-chloropyridin-4-yl)methyl)-2-(3-(4-cyanophenyl)allyl)-1,2,3,4-tetrahydro-5H-pyrido[4,3-b]indole-5-carboxamide] | 0.4 µM | 13.5 µM | – | – | –
4 | O=C(NCc1ccnc(Cl)c1)n1c2c(c3cc(Cl)ccc31)CN(C/C=C/c1ccncc1)CC2 [Example 248, (E)-8-chloro-N-((2-chloropyridin-4-yl)methyl)-2-(3-(pyridin-4-yl)allyl)-1,2,3,4-tetrahydro-5H-pyrido[4,3-b]indole-5-carboxamide] | 0.4 µM | 0.5 µM | – | – | –
5 | O=C(NCc1ccnc(Cl)c1)n1c2c(c3cc(C(F)(F)F)ccc31)CN(C/C=C/c1ccc(F)cc1F)CC2 [Example 412, (E)-N-((2-chloropyridin-4-yl)methyl)-2-(3-(2,4-difluorophenyl)allyl)-8-(trifluoromethyl)-1,2,3,4-tetrahydro-5H-pyrido[4,3-b]indole-5-carboxamide] | 1.8 µM | 10 µM | – | – | –
6 | N#Cc1ccc2c(c1)c1c(n2C(=O)NCc2ccnc(Cl)c2)CCN(C/C=C/c2cc(F)ccc2Br)C1 [Example 77, (E)-2-(3-(2-bromo-5-fluorophenyl)allyl)-N-((2-chloropyridin-4-yl)methyl)-8-cyano-1,2,3,4-tetrahydro-5H-pyrido[4,3-b]indole-5-carboxamide] | 0.3 µM | > 100 µM | – | – | –
7 | N#Cc1ccc2c3c(n(C(=O)NCc4ccnc(Cl)c4)c2c1)CCN(C/C=C/c1ccc(F)c(Cl)c1)C3 [Example 27, (E)-2-(3-(3-chloro-4-fluorophenyl)allyl)-N-((2-chloropyridin-4-yl)methyl)-7-cyano-1,2,3,4-tetrahydro-5H-pyrido[4,3-b]indole-5-carboxamide] | 1.8 µM | 1.8 µM | – | – | –
8 | O=C(NCc1ccnc(Cl)c1)n1c2c(c3c(F)cc(C(F)(F)F)cc31)CN(C/C=C/c1ccc(Cl)cc1)CC2 [Example 323, (E)-2-(3-(4-chlorophenyl)allyl)-N-((2-chloropyridin-4-yl)methyl)-9-fluoro-7-(trifluoromethyl)-1,2,3,4-tetrahydro-5H-pyrido[4,3-b]indole-5-carboxamide] | > 100 µM | 7.6 µM | – | – | –
9 | N#Cc1ccc2c3c(n(C(=O)NCc4ccnc(Cl)c4)c2c1)CCN(C/C=C/c1ccc(Br)cc1F)C3 [Example 5, (E)-2-(3-(4-bromo-2-fluorophenyl)allyl)-N-((2-chloropyridin-4-yl)methyl)-7-cyano-1,2,3,4-tetrahydro-5H-pyrido[4,3-b]indole-5-carboxamide] | 1 µM | 5.7 µM | – | – | –
10 | O=C(NCc1ccnc(O)c1)n1c2c(c3cc(C(F)(F)F)ccc31)CN(C/C=C/c1ccc(F)cc1F)CC2 [Example 453, (E)-2-(3-(2,4-difluorophenyl)allyl)-N-((2-hydroxypyridin-4-yl)methyl)-8-(trifluoromethyl)-1,2,3,4-tetrahydro-5H-pyrido[4,3-b]indole-5-carboxamide] | > 100 µM | 10 µM | – | – | –
11 | O=C(NCc1ccnc(Cl)c1)n1c2c(c3c4ccccc4ccc31)CN(C/C=C/c1ccc(Cl)cc1)CC2 [Example 436, (E)-10-(3-(4-chlorophenyl)allyl)-N-((2-chloropyridin-4-yl)methyl)-8,9,10,11-tetrahydro-7H-benzo[e]pyrido[4,3-b]indole-7-carboxamide] | > 100 µM | 18.2 µM | – | – | –
12 | O=C(NCc1ccnc(F)c1)n1c2c(c3cc(OC(F)(F)F)ccc31)CN(C/C=C/c1ccc(F)cc1F)CC2 [Example 403, (E)-2-(3-(2,4-difluorophenyl)allyl)-N-((2-fluoropyridin-4-yl)methyl)-8-(trifluoromethoxy)-1,2,3,4-tetrahydro-5H-pyrido[4,3-b]indole-5-carboxamide] | 0.3 µM | 18.2 µM | – | – | –
13 | N#Cc1ccc2c(c1)c1c(n2C(=O)NCc2ccnc(Cl)c2)CCN(C/C=C/c2ccc(Cl)c(Cl)c2)C1 [Example 93, (E)-N-((2-chloropyridin-4-yl)methyl)-8-cyano-2-(3-(3,4-dichlorophenyl)allyl)-1,2,3,4-tetrahydro-5H-pyrido[4,3-b]indole-5-carboxamide] | 0.7 µM | 2.4 µM | – | – | –
14 | N#Cc1ccc2c(c1)c1c(n2C(=O)NCc2ccnc(F)c2)CCN(C/C=C/c2ccncc2)C1 [Example 124, (E)-8-cyano-N-((2-fluoropyridin-4-yl)methyl)-2-(3-(pyridin-4-yl)allyl)-1,2,3,4-tetrahydro-5H-pyrido[4,3-b]indole-5-carboxamide] | 100 µM | 33 µM | – | – | –
15 | O=C(NCc1cnc(Cl)s1)n1c2c(c3c(Cl)c(Cl)ccc31)CN(C/C=C/c1ccc(Cl)cc1)CC2 [Example 295, (E)-8,9-dichloro-2-(3-(4-chlorophenyl)allyl)-N-((2-chlorothiazol-5-yl)methyl)-1,2,3,4-tetrahydro-5H-pyrido[4,3-b]indole-5-carboxamide] | > 100 µM | 18.2 µM | – | – | –
16 | O=C(NCc1ccnc(Cl)c1)N1c2ccc(Cl)cc2C2CN(C/C=C/c3ccc(Cl)c(Cl)c3)CCC21 (centres unmarked) [Example 517, (E)-8-chloro-N-((2-chloropyridin-4-yl)methyl)-2-(3-(3,4-dichlorophenyl)allyl)-1,2,3,4,4a,9b-hexahydro-5H-pyrido[4,3-b]indole-5-carboxamide] | – | – | 0.5 µM | 10.0 µM | –
17 | O=C(NCc1ccnc(Cl)c1)n1c2c(c3cc(Cl)c(Cl)cc31)CN(C/C=C/c1ccc(F)cc1F)CC2 [Example 276, (E)-7,8-dichloro-N-((2-chloropyridin-4-yl)methyl)-2-(3-(2,4-difluorophenyl)allyl)-1,2,3,4-tetrahydro-5H-pyrido[4,3-b]indole-5-carboxamide] | 0.3 µM | 18.2 µM | – | – | –
18 | O=C(NCc1ccnc(Cl)c1)n1c2c(c3ccc(N4CCOCC4)cc31)CN(C/C=C/c1ccc(Cl)c(F)c1)CC2 [Example 509, (E)-2-(3-(4-chloro-3-fluorophenyl)allyl)-N-((2-chloropyridin-4-yl)methyl)-7-morpholino-1,2,3,4-tetrahydro-5H-pyrido[4,3-b]indole-5-carboxamide] | 1 µM | 18.2 µM | – | – | –
19 | O=C(NCc1ccnc(Cl)c1)n1c2c(c3ccc(Br)cc31)CN(C/C=C/c1ccc(F)c(Cl)c1)CC2 [Example 439, (E)-7-bromo-2-(3-(3-chloro-4-fluorophenyl)allyl)-N-((2-chloropyridin-4-yl)methyl)-1,2,3,4-tetrahydro-5H-pyrido[4,3-b]indole-5-carboxamide] | 1.8 µM | 18.2 µM | – | – | –
20 | N#Cc1ccc2c(c1)c1c(n2C(=O)NCc2ccnc(O)c2)CCN(C/C=C/c2ccc(Br)cc2F)C1 [Example 451, (E)-2-(3-(4-bromo-2-fluorophenyl)allyl)-8-cyano-N-((2-hydroxypyridin-4-yl)methyl)-1,2,3,4-tetrahydro-5H-pyrido[4,3-b]indole-5-carboxamide] | > 100 µM | 3.3 µM | – | – | –
21 | O=C(NCc1ccnc(F)c1)n1c2c(c3cc(OC(F)(F)F)ccc31)CN(C/C=C/c1cc(F)cc(F)c1)CC2 [Example 407, (E)-2-(3-(3,5-difluorophenyl)allyl)-N-((2-fluoropyridin-4-yl)methyl)-8-(trifluoromethoxy)-1,2,3,4-tetrahydro-5H-pyrido[4,3-b]indole-5-carboxamide] | 1 µM | 5.7 µM | – | – | –
22 | N#Cc1ccc(/C=C/CN2CCc3c(c4cc(F)c(Cl)cc4n3C(=O)NCc3ccnc(F)c3)C2)cc1F [Example 311, (E)-7-chloro-2-(3-(4-cyano-3-fluorophenyl)allyl)-8-fluoro-N-((2-fluoro-pyridin-4-yl)methyl)-1,2,3,4-tetrahydro-5H-pyrido[4,3-b]indole-5-carboxamide] | 0.5 µM | 5.7 µM | – | – | –
23 | N#Cc1ccc2c(c1)c1c(n2C(=O)NCc2ccnc(Cl)c2)CCN(C/C=C/c2ccc(F)cc2Cl)C1 [Example 87, (E)-2-(3-(2-chloro-4-fluorophenyl)allyl)-N-((2-chloropyridin-4-yl)methyl)-8-cyano-1,2,3,4-tetrahydro-5H-pyrido[4,3-b]indole-5-carboxamide] | 0.2 µM | 5.7 µM | – | – | –
24 | (E)-7-chloro-2-(3-(4-cyano-3-fluorophenyl)allyl)-N-((2-fluoropyridin-4-yl)methyl)-1,2,3,4-tetrahydro-5H-pyrido[4,3-b]indole-5-carboxamide [Example 225] | – | – | 1.8 µM | – | 3.3 µM
25 | N#Cc1ccc2c(c1)c1c(n2C(=O)NCc2ccnc(F)c2)CCN(C/C=C/c2ccc(F)cc2Br)C1 [Example 125, (E)-2-(3-(2-bromo-4-fluorophenyl)allyl)-8-cyano-N-((2-fluoropyridin-4-yl)methyl)-1,2,3,4-tetrahydro-5H-pyrido[4,3-b]indole-5-carboxamide] | 0.3 µM | > 100 µM | – | – | –
